Patent publication US10494338B2, “Prostaglandin derivative” (AGC INC., priority 2016, dated 2019)

Assays:
[1] = system: guinea pig platelet aggregation; test: Persistent inhibitory action on guinea pig platelet aggregation ex vivo after single oral dose; assay type: in vivo; conditions: for AUC: 1-inhibition 0 hr / AUC: 6-inhibition 0 hr: AUC of maximum aggregation inhibition ratio (%) vs time (hr), oral IC50 dose; for AUC: 1-inhibition 0 hr: from 1 hr after administration to inhibition 0 hr; for AUC: 6-inhibition 0 hr: from 6 hr after administration to inhibition 0 hr; for Inhibition 0 hr: assumed time at which maximum aggregation inhibition ratio became 0%, single oral dose at IC50 dose; for Inhibition 0 hr / single oral dose showing the IC50 value: guinea pig; for single oral dose showing the IC50 value: blood collected 4 hr later, ADP 0.5 μmol/L; for AUC: 1-inhibition 0 hr (% relative to limaprost) / AUC: 6-inhibition 0 hr (% relative to limaprost): value in brackets, limaprost = 100
Description: Experimental Example 3: Evaluation of Persistent Inhibitory Action on Guinea Pig Platelet Aggregation Ex Vivo
(1) Measurement of IC50 Value
As a test substance, a single oral dose of the compound of the present invention (3 doses of 79, 132 and 263 nmol/kg), limaprost (positive control substance: 3 doses of 79, 263 and 789 nmol/kg) or vehicle control (water for injection containing 0.26 vol % DMSO) was administered at 10 mL/kg to 4- to 10-week-old male Hartley guinea pigs. Blood samples were collected from the abdominal artery 4 hr later, platelet aggregation ability was measured, and the IC50 value was calculated from the aggregation inhibitory activity (aggregation was induced by 0.5 μmol/L ADP) in the same manner as in the above-mentioned Experimental Example 1(3).
(2) Administration of Test Substance and Preparation of Platelet-Rich Plasma
Blood samples were collected from the abdominal artery of the guinea pig at 1, 2, 4, 6, 10, 16 and 24 hr later. PRP was diluted with PPP and the number of platelet was adjusted to about 60×10^4/μL in the same manner as in the above-mentioned Experimental Example 1(1) (n=3−4).
(3) Measurement of Platelet Aggregation
In the same manner as in the above-mentioned Experimental Example 1(2), the platelet aggregation ability was measured according to the method of Born. PRP (190 μL) was placed in a glass cuvette, mounted on the platelet aggregometer and incubated at 37° C. for 10 min. ADP (10 μL) as platelet aggregation agent was added at 0.5 μmol/L in a final concentration to cause aggregation, and the maximum reaction of the aggregation was measured.
(4) Evaluation of Persistent Inhibitory Action on Platelet Aggregation
The maximum aggregation inhibition ratio of the test substance based on the maximum aggregation inhibition ratio of the control group as 0% was determined from the maximum coagulation ratio of the control group and the maximum coagulation ratio of the test substance when IC50 values were calculated. […] In addition, the assumed time at which the maximum aggregation inhibition ratio became 0% on the graph was determined as the time at which inhibition of aggregation disappeared (inhibition 0 hr).

[2] = system: rat cauda equine blood flow; test: Increasing effect on rat cauda equine blood flow (intravenous infusion, laser Doppler); assay type: in vivo; conditions: Wistar rat, tail vein infusion 10 min; relative activity from ED20 (dose increasing cauda equine blood flow by 20%), limaprost = 100
Description: Experimental Example 4: Evaluation of Increasing Effect on rat Cauda Equine Blood Flow
(1) Administration of Test Substance
The compound of the present invention or limaprost (positive control substance) as a test substance was injected at 0.263, 0.789 and 2.63 nmol/kg in principle to Slc:Wistar male rats (body weight: about 200-250 g) from the tail vein at a flow rate of 0.2 mL/min for 10 min with an infusion pump (model 11, Harvard Apparatus). A vehicle (1 vol % DMSO-physiological saline) was similarly injected to the control group (5-6 […] in each group).
(2) Measurement of Cauda Equine Blood Flow
The rats were fixed in a prone position under halothane anesthesia and kept warm by a heater (Nippon Medical & Chemical Instruments Co., Ltd.). The lower back of the rats was shaved, dissected to expose the spine, the vertebral arch of the fifth lumbar vertebra was excised and cauda equina was exposed. The cauda equine blood flow was measured by a laser Doppler blood flow meter (TBF-LN1, Unique Medical Co., Ltd.) via a non-contact type probe (LP-NC special type, Unique Medical Co., Ltd.) fixed perpendicularly to a position of the exposed cauda equina upper by about 1 mm from before administration of each test substance until 60 min after the administration. The open wound was filled with liquid paraffin to prevent drying of the exposed cauda equina.
The obtained data was taken into a personal computer via PowerLab8/30 (registered trade mark, ML870, ADInstruments) every 1/400 second, and analyzed using LabChart (registered trade mark, ADInstruments). The analysis time points were before administration (administration 0 min), and 3, 5, 8, 10, 13, 15, 18, 20, 30, 40, 50 and 60 min after administration, or before administration (administration 0 min), and 3, 5, 10, 15, 20, 30, 40, 50 and 60 min after administration. The mean value for 10 seconds at each time point was taken as the measurement value, and the change rate (%) relative to the value before administration was obtained by the following equation. The rate of change (%)=(measurement value at each time point after administration−measurement value before administration)/measurement value before administration×100
Furthermore, difference in the rate of change (%) relative to the control group at each time point [Δ change rate (%)] was calculated by the following equation, and the maximum value of the Δ change rate was taken as the maximum change rate. Δchange rate (%)=change rate of each individual at each time point−mean of change rate of control group
From the maximum change rate at each dose of the test substance, the dose at which the cauda equine blood flow increases by 20% (ED20 value) was determined by linear regression equation, and the relative activity (%) of each test substance was calculated based on the activity of ED20 value of limaprost as 100.

[3] = system: human platelet aggregation; test: Human platelet aggregation inhibitory action in vitro (ADP-induced, platelet-rich plasma); assay type: cell-based; conditions: human PRP, ADP 3 μmol/L; relative activity from IC50, activity of IC50 value of limaprost = 100
Description: Experimental Example 1: Evaluation of Human Platelet Aggregation Inhibitory Action In Vitro
(1) Preparation of Human Platelet-Rich Plasma
Using 3.8 w/v % sodium citrate as an anticoagulant, blood samples were collected from human brachial vein at a ratio of sodium citrate solution:blood (volume ratio)=1:9, and an upper layer of platelet-rich plasma (PRP) was collected by centrifugation (120×g, 10 min). Platelet poor plasma (PPP) was prepared from PRP-free blood by centrifugation (1700×g, 10 min). The number of platelets in PRP was measured and adjusted to 25×10^4/μL by diluting with PPP.
(2) Measurement of Platelet Aggregation Ability
The platelet aggregation ability was measured by a platelet aggregometer (PRP313 M, IMI Co., Ltd.) according to the method of Born (Nature, 1962, vol. 194, pp. 927-929). PRP (190 μL) was placed in a glass cuvette and mounted on the platelet aggregometer. Then, 5 μL of the compound of the present invention, limaprost (positive control substance) or vehicle control (0.25 vol % dimethyl sulfoxide [DMSO]) was added as a test substance, and the mixture was incubated at 37° C. for 10 min. ADP (LMS Co., Ltd.) (5 μL) as a platelet aggregation agent was added at 3 μmol/L in a final concentration to cause aggregation, and the maximum response of the aggregation was measured.
(3) Evaluation of Inhibitory Action on Platelet Aggregation
The aggregation inhibition ratio of a test substance was determined by defining the maximum aggregation ratio of control as 100%, and IC50 value was determined by using “Dx calculation (linear fitting): non-logit transformation” of SAS System Version 9.1.3 (Stat Preclinica Client Ver. 1.1 SAS Institute Japan, Ltd.). Furthermore, the relative activity (%) of each test substance was calculated by defining the activity of IC50 value of limaprost as 100.

rat platelet aggregation = test: Inhibitory action on rat platelet aggregation in vitro (ADP-induced, platelet-rich plasma); assay type: cell-based; conditions: SD rat PRP, ADP 2 μmol/L; relative activity from IC50, activity of IC50 value of PGE1 = 100
Description: Experimental Example 2: Evaluation of Inhibitory Action on Rat Platelet Aggregation In Vitro (1) Preparation of Rat Platelet-Rich Plasma In the same manner as in the above-mentioned Experimental Example 1(1), blood samples were collected from the abdominal artery of 8- to 9-week-old male SD rats. PRP was diluted with PPP and the number of platelet was adjusted to 63.2×10^4/μL. (2) Measurement of Platelet Aggregation Ability In the same manner as in the above-mentioned Experimental Example 1(2) except that the final concentration of ADP was 2 μmol/L, the compound of the present invention, prostaglandin E1 (PGE1:positive control substance) or vehicle control was added as a test substance, and the maximum response of aggregation was measured. (3) Evaluation of Platelet Aggregation Inhibitory Action In the same manner as in the above-mentioned Experimental Example 1(3), IC50 values were determined from the aggregation inhibition ratio of the test substance, and the relative activity (%) of each test substance was calculated by defining the activity of IC50 value of PGE1 as 100.

C[C@@H](CC#CC1CC1)[C@H](O)/C=C/[C@H]1[C@H](O)CC(=O)[C@@H]1CCCC/C=C/C(=O)O [compound (1)-10, (2E)-7-((1R,2R,3R)-2-((1E,3S,4S)-7-cyclopropyl-3-hydroxy-4-methylhept-1-en-6-yn-1-yl)-3-hydroxy-5-oxocyclopentyl)hept-2-enoic acid]
AUC: 1-inhibition 0 hr [1]: 719 %·h | AUC: 6-inhibition 0 hr [1]: 508 %·h | Inhibition 0 hr [1]: >24 h | single oral dose showing the IC50 value [1]: 187 nmol/kg | AUC: 1-inhibition 0 hr (% relative to limaprost) [1]: 204% | AUC: 6-inhibition 0 hr (% relative to limaprost) [1]: 346% | Relative activity (%) [2]: 550% | Relative activity (%) [3]: 1481%

CCC#CC[C@H](C)[C@H](O)/C=C/[C@H]1[C@H](O)CC(=O)[C@@H]1CCCCCCC(=O)OCc1oc(=O)oc1C [compound (1)-4, (5-methyl-2-oxo-1,3-dioxol-4-yl)methyl 7-((1R,2R,3R)-3-hydroxy-2-((1E,3S,4S)-3-hydroxy-4-methylnon-1-en-6-yn-1-yl)-5-oxocyclopentyl)heptanoate]
Relative activity (%) [2]: 147% | Relative activity (%) [3]: 643%

CCC#CC[C@H](C)[C@H](O)/C=C/[C@H]1[C@H](O)CC(=O)[C@@H]1CCCCCCC(=O)OCC(=O)C(C)(C)C [compound (1)-5, 3,3-dimethyl-2-oxobutyl 7-((1R,2R,3R)-3-hydroxy-2-((1E,3S,4S)-3-hydroxy-4-methylnon-1-en-6-yn-1-yl)-5-oxocyclopentyl) heptanoate]
Relative activity (%) [3]: 161%

CCCCC[C@H](O)/C=C/[C@H]1[C@H](O)CC(=O)[C@@H]1CCCCCCC(=O)O [PGE1, prostaglandin E1, reference compound]
Relative activity (%) (rat platelet aggregation): 100%

CCC#CC[C@H](C)C(O)/C=C/[C@H]1[C@H](O)CC(=O)[C@@H]1CCSC/C=C/C(=O)OC (mixture of isomers) [compound (1)-2, methyl (2E)-4-((2-((1R,2R,3R)-3-hydroxy-2-((1E,3RS,4S)-3-hydroxy-4-methylnon-1-en-6-yn-1-yl)-5-oxocyclopentyl)ethyl)thio)but-2-enoate]
Relative activity (%) (rat platelet aggregation): 62%

C[C@@H](CC#CC1CC1)[C@H](O)/C=C/[C@H]1[C@H](O)CC(=O)[C@@H]1CCCCCCC(=O)O [compound (1)-9, 7-((1R,2R,3R)-2-((1E,3S,4S)-7-cyclopropyl-3-hydroxy-4-methylhept-1-en-6-yn-1-yl)-3-hydroxy-5-oxocyclopentyl)heptanoic acid]
AUC: 1-inhibition 0 hr [1]: 627 %·h | AUC: 6-inhibition 0 hr [1]: 401 %·h | Inhibition 0 hr [1]: 19.7 h | single oral dose showing the IC50 value [1]: 178 nmol/kg | AUC: 1-inhibition 0 hr (% relative to limaprost) [1]: 178% | AUC: 6-inhibition 0 hr (% relative to limaprost) [1]: 273% | Relative activity (%) [2]: 311% | Relative activity (%) [3]: 1200%

CCC#CC[C@H](C)[C@H](O)/C=C/[C@H]1[C@H](O)CC(=O)[C@@H]1CCCC/C=C/C(=O)O [compound (1)-7, (2E)-7-((1R,2R,3R)-3-hydroxy-2-((1E,3S,4S)-3-hydroxy-4-methylnon-1-en-6-yn-1-yl)-5-oxocyclopentyl)hept-2-enoic acid]
AUC: 1-inhibition 0 hr [1]: 713 %·h | AUC: 6-inhibition 0 hr [1]: 526 %·h | Inhibition 0 hr [1]: >24 h | single oral dose showing the IC50 value [1]: 168 nmol/kg | AUC: 1-inhibition 0 hr (% relative to limaprost) [1]: 202% | AUC: 6-inhibition 0 hr (% relative to limaprost) [1]: 359% | Relative activity (%) [2]: 375% | Relative activity (%) [3]: 1319%

CCCC[C@H](C)C[C@H](O)/C=C/[C@H]1[C@H](O)CC(=O)[C@@H]1CCCC/C=C/C(=O)O [limaprost, (2E)-7-((1R,2R,3R)-3-hydroxy-2-((1E,3S,5S)-3-hydroxy-5-methylnon-1-en-1-yl)-5-oxocyclopentyl)hept-2-enoic acid, reference compound]
AUC: 1-inhibition 0 hr [1]: 353 %·h | AUC: 6-inhibition 0 hr [1]: 147 %·h | Inhibition 0 hr [1]: 12.1 h | single oral dose showing the IC50 value [1]: 266 nmol/kg | AUC: 1-inhibition 0 hr (% relative to limaprost) [1]: 100% | AUC: 6-inhibition 0 hr (% relative to limaprost) [1]: 100% | Relative activity (%) [2]: 100% | Relative activity (%) [3]: 100%

CCC#CC[C@H](C)[C@H](O)/C=C/[C@H]1[C@H](O)CC(=O)[C@@H]1CCCCCCC(=O)O [compound (1)-6, 7-((1R,2R,3R)-3-hydroxy-2-((1E,3S,4S)-3-hydroxy-4-methylnon-1-en-6-yn-1-yl)-5-oxocyclopentyl)heptanoic acid]
Relative activity (%) [2]: 383% | Relative activity (%) [3]: 923%
